# Experimental data taken from ChEMBL document CHEMBL4742387, “Condensed tricyclic compounds as protein kinase inhibitors” (2018).
# Activity calls are given as the source filed them. The calls are words filed in the database; no cut-off is given here.
# Tests used:
# MDA-MB-231 [1] = assay: Antiproliferative activity against human MDA-MB-231 cells assessed as reduction in cell proliferation by CellTiter-Glo luminescent cell viability assay; assay type: functional; conditions: Homo sapiens, MDA-MB-231
# DU-145 [2] = assay: Synergistic antiproliferative activity against human DU-145 cells assessed as reduction in cell proliferation by measuring combination index in presence of Ali-sertib by MTT assay; assay type: functional
# SK-MEL19 [3] = assay: Antiproliferative activity against human SK-MEL19 cells assessed as reduction in cell proliferation by CellTiter-Glo luminescent cell viability assay; assay type: functional
# BXPC-3 [4] = assay: Synergistic antiproliferative activity against human BXPC-3 cells assessed as reduction in cell proliferation by measuring combination index in presence of crizotinib by MTT assay; assay type: functional
# HCT-116 [5] = assay: Synergistic antiproliferative activity against human HCT-116 cells assessed as reduction in cell proliferation by measuring combination index in presence of Ali-sertib by MTT assay; assay type: functional
# [6] = molecular target: T1, Serine/threonine-protein kinase haspin (Homo sapiens, UniProt Q8TF76); assay: Inhibition of haspin in human SW620 cells assessed as reduction in IFNgamma-induced H3T3 phosphorylation pre-incubated for 1 hr before IFNgamma stimulation for 3 hrs by Western blot analysis; assay type: cell-based, SW-620
# T1 sequence (Q8TF76 whole entry): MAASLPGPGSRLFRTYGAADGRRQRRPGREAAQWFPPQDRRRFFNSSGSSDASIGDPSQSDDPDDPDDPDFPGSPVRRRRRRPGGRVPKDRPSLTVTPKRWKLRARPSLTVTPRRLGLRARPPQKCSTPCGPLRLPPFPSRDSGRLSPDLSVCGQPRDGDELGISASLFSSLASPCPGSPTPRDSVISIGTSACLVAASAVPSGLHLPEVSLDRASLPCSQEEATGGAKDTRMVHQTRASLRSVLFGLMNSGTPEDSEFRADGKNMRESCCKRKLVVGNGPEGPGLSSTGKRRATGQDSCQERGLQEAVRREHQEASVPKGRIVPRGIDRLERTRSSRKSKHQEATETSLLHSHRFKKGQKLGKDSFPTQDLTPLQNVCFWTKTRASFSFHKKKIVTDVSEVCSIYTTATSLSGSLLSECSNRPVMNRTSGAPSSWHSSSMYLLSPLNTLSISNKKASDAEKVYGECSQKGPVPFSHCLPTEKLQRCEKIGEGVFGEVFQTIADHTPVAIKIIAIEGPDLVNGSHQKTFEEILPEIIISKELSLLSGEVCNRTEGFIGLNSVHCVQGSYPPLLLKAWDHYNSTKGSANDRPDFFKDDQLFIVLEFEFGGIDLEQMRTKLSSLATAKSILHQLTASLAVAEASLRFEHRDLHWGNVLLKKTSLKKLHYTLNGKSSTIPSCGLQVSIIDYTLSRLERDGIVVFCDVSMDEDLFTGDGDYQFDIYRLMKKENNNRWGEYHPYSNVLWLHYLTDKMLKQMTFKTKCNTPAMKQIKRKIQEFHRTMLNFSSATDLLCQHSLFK
# SW-620 [7] = assay: Inhibition of colony formation of human SW-620 cells incubated for 11 days (Every 3 days medium is changed by fresh medium and compounds were added freshly) by crystal violet staining based assay; assay type: functional, cell-based
# MV4-11 = assay: Antiproliferative activity against human MV4-11 cells assessed as reduction in cell proliferation by CellTiter-Glo luminescent cell viability assay; assay type: functional; conditions: Homo sapiens, MV4-11
# HCT-116 [8] = assay: Synergistic antiproliferative activity against human HCT-116 cells assessed as reduction in cell proliferation by measuring combination index in presence of taxol by MTT assay; assay type: functional
# SK-MEL19 [9] = assay: Synergistic antiproliferative activity against human SK-MEL19 cells assessed as reduction in cell proliferation by measuring combination index in presence of Elesclomol by MTT assay; assay type: functional
# SW-620 [10] = assay: Synergistic antiproliferative activity against human SW-620 cells assessed as reduction in cell proliferation by measuring combination index in presence of Elesclomol by MTT assay; assay type: functional
# SW-620 [11] = assay: Antiproliferative activity against human SW-620 cells assessed as reduction in cell proliferation by CellTiter-Glo luminescent cell viability assay; assay type: functional; conditions: Homo sapiens, SW-620
# SW-620 [12] = assay: Induction of apoptosis in human SW-620 cells at 0.5 to 5 uM incubated for 24 hrs by propidium iodide staining based assay; assay type: functional, cell-based; conditions: dose 0.5-5 µM
# SW-620 [13] = assay: Induction of cell cycle arrest in human SW-620 cells assessed as accumulation at G2M phase at 0.5 to 5 uM incubated for 24 hrs by propidium iodide staining based assay; assay type: functional; conditions: dose 0.5-5 µM
# HCT-116 [14] = assay: Synergistic antiproliferative activity against human HCT-116 cells assessed as reduction in cell proliferation by measuring combination index in presence of crizotinib by MTT assay; assay type: functional
# SW-620 [15] = assay: Synergistic antiproliferative activity against human SW-620 cells assessed as reduction in cell proliferation by measuring combination index in presence of Crizotinib by MTT assay; assay type: functional
# DU-145 [16] = assay: Synergistic antiproliferative activity against human DU-145 cells assessed as reduction in cell proliferation by measuring combination index in presence of Taxol by MTT assay; assay type: functional
# HCT-116 [17] = assay: Antiproliferative activity against human HCT-116 cells assessed as reduction in cell proliferation by CellTiter-Glo luminescent cell viability assay; assay type: functional
# MDA-MB-231 [18] = assay: Synergistic antiproliferative activity against human MDA-MB-231 cells assessed as reduction in cell proliferation by measuring combination index in presence of Elesclomol by MTT assay; assay type: functional
# [19] = molecular target: T2, Serine/threonine-protein kinase haspin (Homo sapiens) (UniProt Q8TF76); assay: Inhibition of haspin in synchronized human SW620 cells assessed as reduction in IFNgamma-induced H3T3 phosphorylation pre-incubated for 1 hr before IFNgamma stimulation for 3 hrs by Western blot analysis; assay type: cell-based; conditions: SW-620, time 4.0 hrs
# T2 sequence (whole entry): T1 sequence (Q8TF76 whole entry)
# BXPC-3 [20] = assay: Antiproliferative activity against human BXPC-3 cells assessed as reduction in cell proliferation by CellTiter-Glo luminescent cell viability assay; assay type: functional
# SW-620 [21] = assay: Synergistic antiproliferative activity against human SW-620 cells assessed as reduction in cell proliferation by measuring combination index in presence of taxol by MTT assay; assay type: functional
# DU-145 [22] = assay: Antiproliferative activity against human DU-145 cells assessed as reduction in cell proliferation by CellTiter-Glo luminescent cell viability assay; assay type: functional
# BXPC-3 [23] = assay: Synergistic antiproliferative activity against human BXPC-3 cells assessed as reduction in cell proliferation by measuring combination index in presence of Elesclomol by MTT assay; assay type: functional
# DU-145 [24] = assay: Synergistic antiproliferative activity against human DU-145 cells assessed as reduction in cell proliferation by measuring combination index in presence of crizotinib by MTT assay; assay type: functional
# A549 [25] = assay: Antiproliferative activity against human A549 cells assessed as reduction in cell proliferation by CellTiter-Glo luminescent cell viability assay; assay type: functional
# SW-620 [26] = assay: Synergistic antiproliferative activity against human SW-620 cells assessed as reduction in cell proliferation by measuring combination index in presence of oxaliplatin by MTT assay; assay type: functional
# SK-MEL19 [27] = assay: Synergistic antiproliferative activity against human SK-MEL19 cells assessed as reduction in cell proliferation by measuring combination index in presence of Crizotinib by MTT assay; assay type: functional
# Mus musculus [28] = assay: Inhibition of CDK8 in athymic nude mouse xenografted with human SW-620 cells assessed as reduction in STAT1 S727 phosphorylation 5 mg/kg, po administered as single dose after 4 hrs by Western blot analysis; assay type: functional, organism-based
# MOLM-13 = assay: Antiproliferative activity against human MOLM-13 cells assessed as reduction in cell proliferation by CellTiter-Glo luminescent cell viability assay; assay type: functional; conditions: Homo sapiens, MOLM-13
# A549 [29] = assay: Synergistic antiproliferative activity against human A549 cells assessed as reduction in cell proliferation by measuring combination index in presence of Elesclomol by MTT assay; assay type: functional
# SW-620 [30] = assay: Synergistic antiproliferative activity against human SW-620 cells assessed as reduction in cell proliferation by measuring combination index in presence of ABT-751 by MTT assay; assay type: functional
# [31] = molecular target: T3, Cyclin-dependent kinase 8 (Homo sapiens, UniProt P49336); assay: Inhibition of CDK8 in human SW-620 cells assessed as reduction in STAT1 S727 phosphorylation pre-incubated for 1 hr before IFNgamma stimulation for 3 hrs by Western blot analysis; assay type: cell-based
# T3 sequence (P49336 whole entry): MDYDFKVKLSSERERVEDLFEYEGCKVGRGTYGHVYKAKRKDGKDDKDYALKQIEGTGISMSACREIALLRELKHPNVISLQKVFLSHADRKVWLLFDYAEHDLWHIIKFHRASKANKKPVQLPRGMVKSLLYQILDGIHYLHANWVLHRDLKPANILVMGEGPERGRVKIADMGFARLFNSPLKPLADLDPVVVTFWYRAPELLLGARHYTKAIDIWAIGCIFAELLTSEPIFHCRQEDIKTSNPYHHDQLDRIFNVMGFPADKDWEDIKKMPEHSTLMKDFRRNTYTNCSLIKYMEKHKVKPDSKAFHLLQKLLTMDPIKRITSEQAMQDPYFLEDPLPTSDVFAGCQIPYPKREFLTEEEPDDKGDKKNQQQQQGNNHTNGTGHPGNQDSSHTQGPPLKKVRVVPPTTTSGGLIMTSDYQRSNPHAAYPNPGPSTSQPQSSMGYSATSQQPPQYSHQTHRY
# Mus musculus [32] = assay: Inhibition of CDK8 in athymic nude mouse xenografted with human SW-620 cells assessed as reduction in STAT1 S727 phosphorylation 5 mg/kg, po administered as single dose after 1 hr by Western blot analysis; assay type: functional, organism-based
# SW-620 [33] = assay: Synergistic antiproliferative activity against human SW-620 cells assessed as reduction in cell proliferation by measuring combination index in presence of Ali-sertib by MTT assay; assay type: functional
# [34] = molecular target: T3, Cyclin-dependent kinase 8; assay: Inhibition of CDK8 in human SW-620 cells assessed as reduction in IFNgamma-induced STAT1 S727 phosphorylation pre-incubated for 1 hr before IFNgamma stimulation for 3 hrs by Western blot analysis; assay type: cell-based; conditions: time 4.0 hrs
compound,measurement,setting,value
CCn1c(C(N)=O)cc2c1-c1ccncc1OC2(C)C,GI50,MDA-MB-231 [1],3500 nM
same,CI,DU-145 [2],0.65
same,GI50,SK-MEL19 [3],1250 nM
same,CI,BXPC-3 [4],0.72
same,CI,HCT-116 [5],0.64
same,IC50,[6],1.6 nM
same,EC50,SW-620 [7],51 nM
same,GI50,MV4-11,115 nM
same,CI,HCT-116 [8],0.63
same,CI,SK-MEL19 [9],0.49
same,CI,SW-620 [10],0.05
same,GI50,SW-620 [11],3390 nM
same,Activity,SW-620 [12],Dose-dependent effect
same,Activity,SW-620 [13],Dose-dependent effect
same,CI,HCT-116 [14],0.58
same,CI,SW-620 [15],0.65
same,CI,DU-145 [16],0.21
same,GI50,HCT-116 [17],5 µM
same,CI,MDA-MB-231 [18],0.59
same,INH,[19],1.5 10^-8mol/L
same,GI50,BXPC-3 [20],5 µM
same,CI,SW-620 [21],0.28
same,GI50,DU-145 [22],5 µM
same,CI,BXPC-3 [23],0.25
same,CI,DU-145 [24],0.44
same,GI50,A549 [25],5000 nM
same,CI,SW-620 [26],0.53
same,CI,SK-MEL19 [27],0.55
same,inhibition,Mus musculus [28],Active
same,GI50,MOLM-13,349 nM
same,CI,A549 [29],0.63
same,CI,SW-620 [30],0.18
same,IC50,[31],1.5 nM
same,inhibition,Mus musculus [32],Active
same,CI,SW-620 [33],0.52
CC(=O)O[C@H]1C(=O)[C@@]2(C)[C@H]([C@H](OC(=O)c3ccccc3)[C@]3(O)C[C@H](OC(=O)[C@H](O)[C@@H](NC(=O)c4ccccc4)c4ccccc4)C(C)=C1C3(C)C)[C@]1(OC(C)=O)CO[C@@H]1C[C@@H]2O [PACLITAXEL],GI50,SW-620 [11],5 nM
same,GI50,HCT-116 [17],0.005 µM
COc1ccccc1-c1c2c(n(CCF)c1C(N)=O)-c1ccncc1OC2(C)C,EC50,SW-620 [7],5430 nM
same,INH,[19],0.5 µM
same,INH,[34],< 500 nM
CN(NC(=O)CC(=O)NN(C)C(=S)c1ccccc1)C(=S)c1ccccc1 [ELESCLOMOL],GI50,MDA-MB-231 [1],250 nM
same,GI50,SK-MEL19 [3],250 nM
same,GI50,SW-620 [11],250 nM
same,GI50,BXPC-3 [20],0.062 µM
same,GI50,A549 [25],250 nM
C[C@@H](Oc1cc(-c2cnn(C3CCNCC3)c2)cnc1N)c1c(Cl)ccc(F)c1Cl [CRIZOTINIB],GI50,SK-MEL19 [3],5000 nM
same,GI50,SW-620 [11],1000 nM
same,GI50,HCT-116 [17],5 µM
same,GI50,BXPC-3 [20],5 µM
same,GI50,DU-145 [22],20 µM
COc1cc(Nc2ncc3c(n2)-c2ccc(Cl)cc2C(c2c(F)cccc2OC)=NC3)ccc1C(=O)O [ALISERTIB],GI50,SW-620 [11],500 nM
same,GI50,HCT-116 [17],12.5 µM
same,GI50,DU-145 [22],12.5 µM
